{"source": "patent US10617680B2", "about": "(CELGENE QUANTICEL RESEARCH, INC., priority 2017, dated 2020)", "data": [{"target": "CBP (Homo sapiens (Human), UniProt Q92793)", "sequence (Q92793 1081-1197)": "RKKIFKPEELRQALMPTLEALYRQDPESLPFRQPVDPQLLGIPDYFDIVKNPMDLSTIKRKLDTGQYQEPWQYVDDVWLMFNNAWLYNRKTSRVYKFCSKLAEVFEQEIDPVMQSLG", "assay": "In vitro CBP inhibition (AlphaScreen, biotinylated H4-tetraacetyl peptide)", "assay_type": "binding", "settings": "AlphaScreen, Table 29; read-out: CBP IC50", "protocol": "The CBP-inhibitory activity of the compounds described herein was determined by calculating the IC50. More specifically, CBP inhibitor activity was assayed as follows: CBP was cloned and expressed in E. coli as His-tag protein and purified by Nickel affinity and gel-filtration chromatography. […] CBP binding and inhibition is assessed by monitoring the interaction of biotinylated H4-tetraacetyl peptide (AnaSpec, H4K5/8/12/16(Ac), biotin-labeled) with the target using the AlphaScreen technology (Perkin Elmer). In a 384-well ProxiPlate CBP (50 nM final) was combined with peptide (20 nM final) in 50 mM HEPES (pH 7.3), 10 mM NaCl, 0.25 mM TCEP, 0.1% (w/v) BSA, and 0.005% (w/v) Brij-35 either in the presence of DMSO (final 0.4% DMSO) or compound dilution series in DMSO. After 20 min incubation at room temp, Alpha-streptavidin donor beads and Nickel Chelate acceptor beads were added to a final concentration of 5 μg/mL.\nThe ability of the compounds disclosed herein to inhibit CBP activity was quantified and the respective IC50 value determined.", "units": {"IC50": "nM"}, "values": [{"smiles": "O=c1cc(-c2ccccc2)c(-c2cnn(Cc3ccccc3)c2)cn1C(F)F", "note": "[Example 35, 5-(1-benzyl-1H-pyrazol-4-yl)-1-(difluoromethyl)-4-phenyl-pyridin-2(1H)-one]", "IC50": "500 to 5000"}, {"smiles": "CC(C)Oc1cc(=O)n(C)cc1-c1cnn(C(C)c2ccccc2)c1", "note": "(stereo not drawn) [Example 36, 4-isopropoxy-1-methyl-5-(1-(1-phenylethyl)-1H-pyrazol-4-yl)pyridin-2(1H)-one]", "IC50": "< 500"}, {"smiles": "Cn1cc(-c2cnn(Cc3ccccc3)c2)c(N2CCC(S(C)(=O)=O)C2)cc1=O", "note": "(stereo not drawn) [Example 37, 5-(1-Benzyl-1H-pyrazol-4-yl)-4-(3-methanesulfonyl-pyrrolidin-1-yl)-1-methyl-1H-pyridin-2-one]", "IC50": "< 500"}, {"smiles": "CC(c1ccccc1)n1cc(-c2cn(C)c(=O)cc2Cl)cn1", "note": "(stereo not drawn) [Example 38, 4-chloro-1-methyl-5-(1-(1-phenyl-ethyl)-1H-pyrazol-4-yl) pyridin-2(1H)-one]", "IC50": "< 500"}, {"smiles": "CC(c1ccccc1)n1cc(-c2cn(C)c(=O)cc2N2CCC2)cn1", "note": "(stereo not drawn) [Example 40, 4-(azetidin-1-yl)-1-methyl-5-(1-(1-phenylethyl)-1H-pyrazol-4-yl) pyridin-2(1H)-one]", "IC50": "< 500"}, {"smiles": "CNc1cc(=O)n(C)cc1-c1cnn(C(C)c2ccccc2)c1", "note": "(stereo not drawn) [Example 42, 1-methyl-4-(methyl-amino)-5-(1-(1-phenylethyl)-1H-pyrazol-1-yl) pyridin-2(1H)-one]", "IC50": "< 500"}, {"smiles": "CC(c1ccccc1)n1cc(-c2cn(C)c(=O)cc2OCc2ccn(C)n2)cn1", "note": "(stereo not drawn) [Example 44, 1-methyl-4-((1-methyl-1H-pyrazol-3-yl)methoxy)-5-(1-(1-phenyl-ethyl)-1H-pyrazol-4-yl) pyridin-2(1H)-one]", "IC50": "< 500"}, {"smiles": "CC(C)Oc1cc(=O)n(C)cc1-c1cnn([C@H](C)c2ccccc2)c1", "note": "[Example 45, (R)-4-isopropoxy-1-methyl-5-(1-(1-phenylethyl)-1H-pyrazol-4-yl) pyridin-2(1H)-one]", "IC50": "< 500"}, {"smiles": "CC(C)Oc1cc(=O)n(C)cc1-c1cnn([C@@H](C)c2ccccc2)c1", "note": "[Example 46, (S)-4-isopropoxy-1-methyl-5-(1-(1-phenylethyl)-1H-pyrazol-4-yl) pyridin-2(1H)-one]", "IC50": "< 500"}, {"smiles": "C[C@@H](c1ccccc1)n1cc(-c2cn(C)c(=O)cc2N2CCCC2)cn1", "note": "[Example 47, (S)-1-methyl-5-(1-(1-phenylethyl)-1H-pyrazol-4-yl)-4-(pyrrolidin-1-yl)pyridin-2(1H)-one]", "IC50": "< 500"}, {"smiles": "CC(C)COc1cc(=O)n(C)cc1-c1cnn(C(C)c2ccccc2)c1", "note": "(stereo not drawn) [Example 48, 4-isobutoxy-1-methyl-5-(1-(1-phenylethyl)-1H-pyrazol-4-yl) pyridin-2(1H)-one]", "IC50": "< 500"}, {"smiles": "CC(c1ccccc1)n1cc(-c2cn(C)c(=O)cc2OC2CCC2)cn1", "note": "(stereo not drawn) [Example 49, 4-cyclobutoxy-1-methyl-5-(1-(1-phenylethyl)-1H-pyrazol-4-yl) pyridin-2(1H)-one]", "IC50": "< 500"}, {"smiles": "CC(=O)N1CC(Oc2cc(=O)n(C)cc2-c2cnn(C(C)c3ccccc3)c2)C1", "note": "(stereo not drawn) [Example 50, 4-((1-acetylazetidin-3-yl)oxy)-1-methyl-5-(1-(1-phenylethyl)-1H-pyrazol-4-yl)pyridin-2(1H)-one]", "IC50": "< 500"}, {"smiles": "CC(c1ccccc1)n1cc(-c2cn(C)c(=O)cc2OC2CCCC2)cn1", "note": "(stereo not drawn) [Example 51, 4-(cyclopentyloxy)-1-methyl-5-(1-(1-phenylethyl)-1H-pyrazol-4-yl) pyridin-2(1H)-one]", "IC50": "< 500"}, {"smiles": "CC(c1ccccc1)n1cc(-c2cn(C)c(=O)cc2OC2CCCCC2)cn1", "note": "(stereo not drawn) [Example 52, 4-(cyclohexyloxy)-1-methyl-5-(1-(1-phenylethyl)-1H-pyrazol-4-yl) pyridin-2(1H)-one]", "IC50": "< 500"}, {"smiles": "CC(c1ccccc1)n1cc(-c2cn(C)c(=O)cc2-n2cccn2)cn1", "note": "(stereo not drawn) [Example 53, 1-methyl-5-(1-(1-phenylethyl)-1H-pyrazol-4-yl)-4-(1H-pyrazol-1-yl) pyridin-2(1H)-one]", "IC50": "< 500"}, {"smiles": "CC1CN(c2cc(=O)n(C)cc2-c2cnn(C(C)c3ccccc3)c2)C1", "note": "(stereo not drawn) [Example 54, 1-methyl-4-(3-methylazetidin-1-yl)-5-(1-(1-phenylethyl)-1H-pyrazol-4-yl)pyridin-2(1H)-one]", "IC50": "< 500"}, {"smiles": "C[C@H](c1ccccc1)n1cc(-c2cn(C)c(=O)cc2N2CCCC2)cn1", "note": "[Example 55, (R)-1-methyl-5-(1-(1-phenylethyl)-1H-pyrazol-4-yl)-4-(pyrrolidin-1-yl)pyridin-2(1H)-one]", "IC50": "< 500"}, {"smiles": "CC(c1ccccc1)n1cc(-c2cn(C)c(=O)cc2OCc2ccccc2)cn1", "note": "(stereo not drawn) [Example 56, 4-(benzyloxy)-1-methyl-5-(1-(1-phenylethyl)-1H-pyrazol-4-yl) pyridin-2(1H)-one]", "IC50": "< 500"}, {"smiles": "CC(c1ccccc1)n1cc(-c2cn(C)c(=O)cc2Oc2ccccc2)cn1", "note": "(stereo not drawn) [Example 57, 1-methyl-4-phenoxy-5-(1-(1-phenylethyl)-1H-pyrazol-4-yl) pyridin-2(1H)-one]", "IC50": "500 to 5000"}, {"smiles": "COC1CN(c2cc(=O)n(C)cc2-c2cnn(C(C)c3ccccc3)c2)C1", "note": "(stereo not drawn) [Example 58, 4-(3-methoxyazetidin-1-yl)-1-methyl-5-(1-(1-phenylethyl)-1H-pyrazol-4-yl)pyridin-2(1H)-one]", "IC50": "500 to 5000"}, {"smiles": "CC(c1ccccc1)n1cc(-c2cn(C)c(=O)cc2OC2CC2)cn1", "note": "(stereo not drawn) [Example 59, 4-cyclopropoxy-1-methyl-5-(1-(1-phenylethyl)-1H-pyrazol-4-yl) pyridin-2(1H)-one]", "IC50": "< 500"}, {"smiles": "C[C@@H](c1ccccc1)n1cc(-c2cn(C)c(=O)cc2-n2cccn2)cn1", "note": "[Example 60, (S)-1-methyl-5-(1-(1-phenylethyl)-1H-pyrazol-4-yl)-4-(1H-pyrazol-1-yl)pyridin-2(1H)-one]", "IC50": "< 500"}, {"smiles": "C[C@H](c1ccccc1)n1cc(-c2cn(C)c(=O)cc2-n2cccn2)cn1", "note": "[Example 61, (R)-1-methyl-5-(1-(1-phenylethyl)-1H-pyrazol-4-yl)-4-(1H-pyrazol-1-yl)pyridin-2(1H)-one]", "IC50": "< 500"}, {"smiles": "CCOc1cc(=O)n(C)cc1-c1cnn(C(C)c2ccc(C)cc2)c1", "note": "(stereo not drawn) [Example 62, 4-ethoxy-1-methyl-5-(1-(1-(p-tolyl)ethyl)-1H-pyrazol-4-yl) pyridin-2(1H)-one]", "IC50": "< 500"}, {"smiles": "CCOc1cc(=O)n(C)cc1-c1cnn(C(C)c2ccc(-c3ccccc3)cc2)c1", "note": "(stereo not drawn) [Example 63, 5-(1-(1-([1,1′-biphenyl]-4-yl)ethyl)-1H-pyrazol-4-yl)-4-ethoxy-1-methylpyridin-2(1H)-one]", "IC50": "< 500"}, {"smiles": "CCOc1cc(=O)n(C)cc1-c1cnn(Cc2ccccc2)c1", "note": "[Example 64, 5-(1-benzyl-1H-pyrazol-4-yl)-4-ethoxy-1-methylpyridin-2(1H)-one]", "IC50": "< 500"}, {"smiles": "CCOc1cc(=O)n(C)cc1-c1cnn(Cc2ccc(C)cc2)c1", "note": "[Example 65, 4-ethoxy-1-methyl-5-(1-(4-methylbenzyl)-1H-pyrazol-4-yl) pyridin-2(1H)-one]", "IC50": "< 500"}, {"smiles": "Cn1cc(-c2cnn(Cc3ccccc3)c2)c(-n2cccn2)cc1=O", "note": "[Example 66, 5-(1-benzyl-1H-pyrazol-4-yl)-1-methyl-4-(1H-pyrazol-1-yl) pyridin-2(1H)-one]", "IC50": "500 to 5000"}, {"smiles": "Cn1cc(-c2cnn(Cc3ccccc3)c2)c(N2CCOCC2)cc1=O", "note": "[Example 67, 5-(1-benzyl-1H-pyrazol-4-yl)-1-methyl-4-morpholino-pyridin-2(1H)-one]", "IC50": "< 500"}, {"smiles": "Cn1cc(-c2cnn(Cc3ccccc3)c2)c(-n2cccc2)cc1=O", "note": "[Example 68, 5-(1-benzyl-1H-pyrazol-4-yl)-1-methyl-4-(1H-pyrrol-1-yl) pyridi-2(1H)-one]", "IC50": "< 500"}, {"smiles": "CCOc1cc(=O)n(C)cc1-c1cn[nH]c1", "note": "[Example 69, 4-ethoxy-1-methyl-5-(1H-pyrazol-4-yl)pyridin-2(1H)-one]", "IC50": "< 500"}, {"smiles": "CCOc1cc(=O)n(C)cc1-c1cnn(Cc2ccccc2C(=O)OC)c1", "note": "[Example 70, methyl 2-((4-(4-ethoxy-1-methyl-6-oxo-1,6-dihydropyridin-3-yl)-1H-pyrazol-1-yl)methyl)benzoate]", "IC50": "< 500"}, {"smiles": "CCOc1cc(=O)n(C)cc1-c1cnn(Cc2cccc(C(=O)OC)c2)c1", "note": "[Example 71, methyl 3-((4-(4-ethoxy-1-methyl-6-oxo-1,6-dihydropyridin-3-yl)-1H-pyrazol-1-yl)methyl)benzoate]", "IC50": "< 500"}, {"smiles": "CC(=O)N[C@@H]1CCN(c2cc(=O)n(C)cc2-c2cnn(Cc3ccccc3)c2)C1", "note": "[Example 72, (R)-N-(1-(5-(1-benzyl-1H-pyrazol-4-yl)-1-methyl-2-oxo-1,2-dihydropyridin-4-yl)pyrrolidin-3-yl)acctamide]", "IC50": "500 to 5000"}, {"smiles": "CC(=O)N[C@H]1CCN(c2cc(=O)n(C)cc2-c2cnn(Cc3ccccc3)c2)C1", "note": "[Example 73, (S)-N-(1-(5-(1-benzyl-1H-pyrazol-4-yl)-1-methyl-2-oxo-1,2-dihydropyridin-4-yl)pyrrolidin-3-yl) acetamide]", "IC50": "500 to 5000"}, {"smiles": "Cn1cc(-c2cnn(Cc3ccccc3)c2)c(N2CC[C@H](C(=O)O)C2)cc1=O", "note": "[Example 75, (S)-1-(5-(1-benzyl-1H-pyrazol-4-yl)-1-methyl-2-oxo-1,2-dihydro-pyridin-4-yl)pyrrolidine-3-carboxylic acid]", "IC50": "< 500"}, {"smiles": "CNC(=O)c1ccn(-c2cc(=O)n(C)cc2-c2cnn(Cc3ccccc3)c2)c1", "note": "[Example 76]", "IC50": "< 500"}, {"smiles": "COC(=O)c1ccn(-c2cc(=O)n(C)cc2-c2cnn(Cc3ccccc3)c2)c1", "note": "[Example 77, methyl 1-(5-(1-benzyl-1H-pyrazol-4-yl)-1-methyl-2-oxo-1,2-dihydro-pyridin-4-yl)-1H-pyrrole-3-carboxylate]", "IC50": "< 500"}]}]}
